Assay results published in US10085974B2, “Dosage and formulation” (Almirall, S.A., priority 2008, dated 2018).

Columns and labels:
[1] = test system: Patients with moderate to severe stable COPD; assay: Spirometric measurements (FEV1) in a 4-week randomized once-daily trial in COPD patients; type: in vivo, human; details: for Mean change from baseline in trough FEV1 on Day 29 (Mean Δ): COPD patients
Procedure: (§1) Methods: Patients with moderate to severe stable COPD were randomized to receive double-blind, once-daily treatment with aclidinium (25, 50, 100, 200, or 400 μg), placebo, or open-label tiotropium 18 μg for 4 weeks. Spirometric measurements were performed at 22-24 h after the first dose and then at weekly intervals, and from 0.5-6 h post-administration on Day 1 and at Week 4 (Day 29).

[2] = test system: Patients with moderate to severe stable COPD; assay: Tolerability (ECG, laboratory parameters, adverse events) in the 4-week COPD trial; type: in vivo, human; details: aclidinium 25-400 μg once daily, 4 weeks
Procedure: as §1

Row | Compound | Mean change from baseline in trough FEV1 on Day 29 (Mean Δ) ([1]; aclidinium 25 μg once daily, double-blind, 4 weeks, inhaled) [mL] | Mean change from baseline in trough FEV1 on Day 29 (Mean Δ) ([1]; aclidinium 50 μg once daily, double-blind, 4 weeks) [mL] | Mean change from baseline in trough FEV1 on Day 29 (Mean Δ) ([1]; aclidinium 100 μg once daily, double-blind, 4 weeks) [mL] | Mean change from baseline in trough FEV1 on Day 29 (Mean Δ) ([1]; aclidinium 200 μg once daily, double-blind, 4 weeks, *p <0.05 vs placebo) | Mean change from baseline in trough FEV1 on Day 29 (Mean Δ) ([1]; aclidinium 400 μg once daily, double-blind, 4 weeks, *p <0.05 vs placebo) | Effect on trough FEV1 on Day 29 ([1]; aclidinium 25-400 μg once daily, 4 weeks) | Bronchodilatory effect compared with open-label tiotropium 18 μg ([1]; aclidinium 200 and 400 μg) | Bronchodilatory effect during the first 6 h post-dose on Day 29 ([1]; all doses, compared with Day 1) | Duration of bronchodilation ([1]; once-daily aclidinium) | Time to peak FEV1 ([1]; post-dose, aclidinium 100-400 μg) [h] | Effect on ECG, laboratory parameters or adverse events [2] | Tolerability [2] | Mean change from baseline in trough FEV1 on Day 29 (Mean Δ) ([1]; tiotropium 18 μg once daily, open-label, 4 weeks, *p <0.05 vs placebo)
1 | O=C(O[C@H]1C[N+]2(CCCOc3ccccc3)CCC1CC2)C(O)(c1cccs1)c1cccs1.[Br-] [Aclidinium, 3(R)-(2-hydroxy-2,2-dithien-2-ylacetoxy)-1-(3-phenoxypropyl)-1-azoniabicyclo[2.2.2]octane bromide] | 39 | 36 | 83 | 148* ml | 128* ml | dose-dependently increased | comparable bronchodilatory effects | comparable to that on Day 1 | sustained bronchodilation over 24 h | 3 | no dose-dependent effect | well tolerated | 
2 | C[N+]1(C)[C@@H]2C[C@@H](OC(=O)C(O)(c3cccs3)c3cccs3)C[C@H]1[C@@H]1O[C@@H]12 [Tiotropium, reference compound] |  |  |  |  |  |  |  |  |  |  |  |  | 161* ml
